This is an account of results in US20250163119A1, “COMPOUNDS FOR THE TREATMENT OF DIABETES OR OBESITY” (Eli Lilly and Company, priority 2023, published 2025).

*1 amine or outer side, *2 acyl side, *3 side chain or, on linkers, in order; H or OH if unused. Where a SMILES comes first, the peptide text is derived from it. Side-chain parts run from the residue outwards. [ ]: non-standard residue; d: D form. The star is where a group is joined. C20 diacid = O=C(O)CCCCCCCCCCCCCCCCCCC(=O)*; γGlu = O=C(O)[C@H](CCC(=O)[*:2])N[*:1]; εLys = N[C@@H](CCCCN[*:1])C(=O)[*:2]; αMeL = CC(C)C[C@](C)(N)C(=O)O; AEEA = NCCOCCOCC(=O)O A value given as a limit tells only on which side of the number the result lay.

As a reminder, the EC50 is the midpoint of the concentration-response curve.

For assay [1], the target named is T1, human CRHR2 (Homo sapiens, UniProt Q13324).
T1 construct: expressed in transfected cells
T1 sequence (Q13324 1-438 isoform Q13324-2): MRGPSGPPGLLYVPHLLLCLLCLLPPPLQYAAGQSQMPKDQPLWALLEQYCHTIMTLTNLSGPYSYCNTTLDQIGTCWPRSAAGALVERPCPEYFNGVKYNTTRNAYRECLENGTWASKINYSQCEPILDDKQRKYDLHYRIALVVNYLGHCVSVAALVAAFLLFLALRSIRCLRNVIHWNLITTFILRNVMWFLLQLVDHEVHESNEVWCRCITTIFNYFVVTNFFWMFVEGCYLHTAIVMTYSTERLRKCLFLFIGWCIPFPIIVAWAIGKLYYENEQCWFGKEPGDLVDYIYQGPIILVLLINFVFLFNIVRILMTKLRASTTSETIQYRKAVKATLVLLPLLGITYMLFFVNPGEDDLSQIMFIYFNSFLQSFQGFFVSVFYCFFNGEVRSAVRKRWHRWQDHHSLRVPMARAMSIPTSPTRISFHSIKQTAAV
Briefly: Human CRHR2 cAMP assay (HTRF) in HEK293 cells stably expressing human CRHR2. It counts as cell-based. The following applies: HEK293 cells overexpressing human CRHR2; relative EC50, maximum 10 nM human UCN2; mean ± SE; read-out: hCRHR2 cAMP EC50 (pM, ± SE). The method, boiled down:
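HTRF cAMP read-out (665/620 nm ratio, 60 min lysis/detection at RT), converted to pmol/well via per-experiment standard curve. Stable HEK293 lines; buffer MEM, 0.1% casein, 5 mM HEPES pH 7.4, 0.25 mM IBMX. CRHR1: 25,000 cells, 1 h, 37° C. CRHR2: 5,000 cells, 30 min, RT.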
On the technique in general: Changes in cAMP serve as a functional read-out for many G protein-coupled receptors.

Assay [2] deals with T2, human CRHR1 (Homo sapiens, UniProt P34998).
T2 construct: expressed in transfected cells
T2 sequence (P34998 24-415): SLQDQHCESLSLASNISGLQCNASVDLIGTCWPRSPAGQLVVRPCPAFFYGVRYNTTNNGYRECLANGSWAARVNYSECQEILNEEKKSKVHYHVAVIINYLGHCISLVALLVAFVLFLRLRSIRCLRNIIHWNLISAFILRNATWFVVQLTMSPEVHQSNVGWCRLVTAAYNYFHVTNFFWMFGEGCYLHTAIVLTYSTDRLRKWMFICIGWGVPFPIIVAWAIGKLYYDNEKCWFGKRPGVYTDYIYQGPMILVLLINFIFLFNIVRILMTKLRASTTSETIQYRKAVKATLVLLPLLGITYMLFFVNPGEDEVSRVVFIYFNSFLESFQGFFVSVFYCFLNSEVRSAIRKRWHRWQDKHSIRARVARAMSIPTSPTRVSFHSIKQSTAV
Briefly: Human CRHR1 cAMP assay (HTRF) in HEK293 cells stably expressing human CRHR1. Type of assay: cell-based. The following applies: HEK293 cells overexpressing human CRHR1; relative EC50, maximum 66 nM human UCN1; mean ± SE; read-out: hCRHR1 cAMP EC50 (pM, ± SE). The method, then: The corticotropin-releasing hormone (CRH) receptor 1 and 2 (CRHR1 and CRHR2) are GPCRs that were functionally coupled to Gs proteins. Stimulation of these receptors results in an increased production of intracellular cAMP, which can be detected using standard in vitro technologies. In vitro activity of peptides was measured by the amount of cAMP formed in human CRHR1 and CRHR2 overexpressed cells.
Human CRHR1 and CRHR2 receptors were stably expressed in human embryonic kidney cells (HEK293) under control of a pcDNA expression vector. The HEK293 cell line was cultured in DMEM 1× (Gibco, 93-0152DK) supplemented with 10% FBS, 1 mM sodium pyruvate, 1×MEM NEAA, 1× GlutaMAX and 10 mM HEPES. The plasmids of human CRHR1-pQCXIP (T7364) and human CRHR2b-R2683puro (T16761) DNA were transfected into HEK293 cells using Lipo fectAMINE 3000 Transfection reagent (Invitrogen, L3000001). After 20 days under selection, the mRNA levels from different clones were measured to confirm the expression of human CRHR1 and CRHR2 genes. To determine the function of over-expressed CRHR cells, the intracellular cAMP levels in response to human UCN1 and UCN2 were measured and compared to the expression of CRHR1 and CRHR2 mRNA in each clone.
Human CRHR1 cells were cultured in DMEM 1× (Gibco, 93-0152DK) supplemented with 10% FBS, 1 mM sodium pyruvate, 1×MEM NEAA, 1×GlutaMAX, 10 mM HEPES, and 800 μg/ml G418. Human CRHR2 cells were cultured at the same media (DMEM 1×, 10% FBS, 1 mM sodium pyruvate, 1×MEM NEAA, 1×GlutaMAX, 10 mM HEPES) in the presence of 0.5 ug/mL puromycin. Cultured cells were grown to 90% confluency and harvested. The cells were frozen at 10×10e6/ml in a mixture of […] fetal bovine serum plus 7% DMSO and stored in liquid nitrogen until use.
On the day of the assay, the frozen cells were thawed and diluted in assay buffer (Phenol Red free MEM (Corning, 17-305-CV, lot #32121010), 0.1% Casein (Sigma C4765, lot #SLCG2120), 5 mM HEPES pH 7.4 containing 0.25 mM IBMX). 10 ul of human CRHR1 cells (25,000 cells) or 10 μL of human CRHR2 cells (5,000 cells) were dispensed into each well of white poly-D-lysine coated 384-well plates (Corning cat #354661). Test compounds diluted in DMSO were added (200 nL/well) in a 1:3 dilution series using ECHO acoustic liquid handler (Beckman). The mixture of cells and test compounds were incubated at 37° C. for 1 hour for the hCRHR1 plate, while the CRHR2 plates were incubated at room temperature for 30 min.
The amount of intracellular cAMP was quantitated using HTRF technology (Homogeneous Time Resolved Fluorescence; Cisbio) as per vendor instructions. Briefly, 10 uL CAMP-d2 conjugate and 10 uL anti-CAMP-cryptate conjugate in lysis buffer were incubated with the treated cells at room temperature for 60 min. The HTRF signal was immediately detected using an Envision plate reader (Perkin-Elmer) to calculate the ratio of fluorescence at 665 to 620 nm.
Raw fluorescence data for concentration curves of the peptides in Table 2 and Table 3 were converted to cAMP amount (pmol/well) using a cAMP standard curve generated for each experiment.

`CC[C@H](C)[C@H](NC(C)=O)C(=O)N[C@H](C(=O)N[C@H](C(=O)N[C@@H](CO)C(=O)N[C@@](C)(CC(C)C)C(=O)N[C@@H](CC(=O)O)C(=O)N[C@@H](C(=O)N1CCC[C@H]1C(=O)N[C@H](C(=O)NCC(=O)N[C@@](C)(CC(C)C)C(=O)N[C@@H](CC(C)C)C(=O)N[C@@H](CCC(N)=O)C(=O)N[C@H](C(=O)N[C@@H](CCCCN)C(=O)N[C@@H](CC(C)C)C(=O)N[C@@H](CCC(=O)O)C(=O)N[C@@H](CCC(N)=O)C(=O)N[C@@H](CCC(=O)O)C(=O)N[C@@H](CCCNC(=N)N)C(=O)N[C@@H](C)C(=O)N[C@@H](CCC(=O)O)C(=O)N[C@@H](CCCCN)C(=O)N[C@@H](C)C(=O)N[C@@H](CCCNC(=N)N)C(=O)N[C@@H](CCC(N)=O)C(=O)N[C@@H](CCC(N)=O)C(=O)N[C@@H](C)C(=O)N[C@@H](CCCCNC(=O)COCCOCCNC(=O)CC[C@H](NC(=O)[C@@H](N)CCCCNC(=O)CCCCCCCCCCCCCCCCCCC(=O)O)C(=O)O)C(=O)N[C@@H](CCC(=O)O)C(=O)N[C@@H](CC(N)=O)C(=O)N[C@H](C(=O)N[C@@H](CCC(=O)O)C(=O)N[C@H](C(=O)N[C@@H](CC(C)C)C(=O)N[C@@H](C)C(=O)N[C@@H](CCC(N)=O)C(=O)N[C@H](C(N)=O)C(C)C)[C@@H](C)CC)[C@@H](C)O)[C@@H](C)CC)[C@@H](C)O)C(C)C)[C@@H](C)O)C(C)C` [SEQ ID NO: 33, Ac-IVTS αMeL D (D-Val) PTG αMeL LQIKLEQERAEKARQQAK((2-[2-(2-Amino-ethoxy)-ethoxy]-acetyl)-γE-ϵK-CO-(CH2)18-CO2H)ENTEILAQV-NH2] (Ac-IVTS[αMeL]D[dV]PTG[αMeL]LQIKLEQERAEKARQQAK([AEEA-γGlu-εLys-C20 diacid])ENTEILAQV-NH2): the EC50 in assay [1] came out at 4.6 ± 0.6 pM; in assay [2], 1.1e+06 pM.

As for `CC[C@H](C)[C@H](NC(C)=O)C(=O)N[C@H](C(=O)N[C@H](C(=O)N[C@@H](CO)C(=O)N[C@@](C)(CC(C)C)C(=O)N[C@@H](CC(=O)O)C(=O)N[C@@H](C(=O)N1CCC[C@H]1C(=O)N[C@H](C(=O)NCC(=O)N[C@@](C)(CC(C)C)C(=O)N[C@@H](CC(C)C)C(=O)N[C@@H](CCC(N)=O)C(=O)N[C@H](C(=O)N[C@@H](CCCCN)C(=O)N[C@@H](CC(C)C)C(=O)N[C@@H](CCC(=O)O)C(=O)N[C@@H](CCC(N)=O)C(=O)N[C@@H](CCC(=O)O)C(=O)N[C@@H](CCCNC(=N)N)C(=O)N[C@@H](C)C(=O)N[C@@H](CCC(=O)O)C(=O)N[C@@H](CCCCN)C(=O)N[C@@H](C)C(=O)N[C@@H](CCCNC(=N)N)C(=O)N[C@@H](CCC(N)=O)C(=O)N[C@@H](CCC(N)=O)C(=O)N[C@@H](C)C(=O)N[C@@H](CCCCNC(=O)[C@@H](N)CCCCNC(=O)COCCOCCNC(=O)CC[C@H](NC(=O)CCCCCCCCCCCCCCCCCCC(=O)O)C(=O)O)C(=O)N[C@@H](CCC(=O)O)C(=O)N[C@@H](CC(N)=O)C(=O)N[C@H](C(=O)N[C@@H](CCC(=O)O)C(=O)N[C@H](C(=O)N[C@@H](CC(C)C)C(=O)N[C@@H](C)C(=O)N[C@@H](CCC(N)=O)C(=O)N[C@H](C(N)=O)C(C)C)[C@@H](C)CC)[C@@H](C)O)[C@@H](C)CC)[C@@H](C)O)C(C)C)[C@@H](C)O)C(C)C` [SEQ ID NO: 34, Ac-IVTS αMeL D (D-Val) PTG αMeL LQIKLEQERAEKARQQAK(ϵK-(2-[2-(2-Amino-ethoxy)-ethoxy]-acetyl)-γE-CO-(CH2)18-CO2H)ENTEILAQV-NH2] (Ac-IVTS[αMeL]D[dV]PTG[αMeL]LQIKLEQERAEKARQQAK([εLys-AEEA-γGlu-C20 diacid])ENTEILAQV-NH2), the EC50 in assay [1] was 4.9 ± 0.7 pM; in assay [2] it was above 1e+07 pM.
